# Measurements as given in PubChem BioAssay (NCI).
# Where “and” joins values, the source holds several entries; their conditions need not be identical. Equal values may be shown once.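 Dose response: 5 concentrations. Exposure: 48 h. Format: 96-well plates. Endpoint: linear interpolation; highest concentration if not reached. Here, GI50 denotes the concentration required for 50% inhibition of growth. TGI marks complete inhibition of growth.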
# Assays:
# Test in all cases: NCI anticancer screen, dose series, 48 h
# [1] = test system: SK-MEL-2 melanoma
# [2] = test system: MALME-3M melanoma
# [3] = test system: K-562 leukemia
# [4] = test system: DU-145 prostate
# [5] = test system: NCI-H522 lung
# [6] = test system: RXF 393 renal
# [7] = test system: LOX IMVI melanoma
# [8] = test system: OVCAR-8 ovarian
# [9] = test system: SK-MEL-5 melanoma
# [10] = test system: T-47D breast
# [11] = test system: UACC-257 melanoma
# [12] = test system: SF-295 CNS
# [13] = test system: IGROV1 ovarian
# [14] = test system: SR leukemia
# [15] = test system: MCF7 breast
# [16] = test system: OVCAR-4 ovarian
# [17] = test system: NCI-H460 lung
# [18] = test system: OVCAR-5 ovarian
# [19] = test system: CAKI-1 renal
# [20] = test system: A549 NSCLC
# [21] = test system: SF-539 CNS
# [22] = test system: PC-3 prostate
# [23] = test system: MOLT-4 leukemia
# [24] = test system: HT29 colon
# [25] = test system: EKVX NSCLC
# [26] = test system: HCT-15 colon
# [27] = test system: CCRF-CEM leukemia
# [28] = test system: HS 578T breast
# [29] = test system: SNB-19 CNS
# [30] = test system: BT-549 breast
# [31] = test system: HOP-92 NSCLC
# [32] = test system: NCI-H23 lung
# [33] = test system: COLO 205 colon
# [34] = test system: SW-620 colon
# [35] = test system: SN12C renal
# [36] = test system: MDA-MB-435
# [37] = test system: 786-0 renal
# [38] = test system: TK-10 renal
# [39] = test system: U251 CNS
# [40] = test system: UO-31 renal
# [41] = test system: SK-MEL-28 melanoma
# [42] = test system: HOP-62 NSCLC
# [43] = test system: OVCAR-3 ovarian
# [44] = test system: MDA-MB-231 breast
# [45] = test system: RPMI-8226 leukemia
# [46] = test system: KM12 colon
# [47] = test system: A498 renal
# [48] = test system: ACHN renal
# [49] = test system: NCI/ADR-RES ovarian
# [50] = test system: SF-268 CNS
# [51] = test system: HL-60(TB) leukemia
# [52] = test system: UACC-62 melanoma
# [53] = test system: HCC-2998 colon
# [54] = test system: NCI-H226 lung
# [55] = test system: HCT-116 colon
# [56] = test system: M14 melanoma
# [57] = test system: SNB-75 CNS
# [58] = test system: SK-OV-3 ovarian
smiles,measurement,setting,value
CC(C)(C)c1cnc(CSc2cnc(NC(=O)C3CCNCC3)s2)o1,GI50,[1],124 nM and 197 nM
same,TGI,[1],284 nM and 518 nM
same,GI50,[2],229 nM and 286 nM
same,TGI,[2],511 nM and 907 nM
same,GI50,[3],337 nM and 229 nM
same,TGI,[3],> 53200 nM
same,GI50,[4],184 nM and 254 nM
same,TGI,[4],5530 nM and > 10000 nM
same,GI50,[5],189 nM and 175 nM
same,TGI,[5],494 nM and 565 nM
same,GI50,[6],124 nM and 157 nM
same,TGI,[6],354 nM and 509 nM
same,GI50,[7],218 nM and 131 nM
same,TGI,[7],14500 nM and > 10000 nM
same,GI50,[8],307 nM and 365 nM
same,TGI,[8],19700 nM and > 10000 nM
same,GI50,[9],238 nM and 563 nM
same,TGI,[9],644 nM and 2180 nM
same,GI50,[10],251 nM and 225 nM
same,TGI,[10],847 nM and > 4350 nM
same,GI50,[11],221 nM and 317 nM
same,TGI,[11],634 nM and 1740 nM
same,GI50,[12],185 nM and 602 nM
same,TGI,[12],> 10000 nM
same,GI50,[13],204 nM
same,TGI,[13],4280 nM and > 10000 nM
same,GI50,[14],34.6 nM and 26.5 nM
same,TGI,[14],1600 nM
same,GI50,[15],52.2 nM and 50.5 nM
same,TGI,[15],> 53300 nM
same,GI50,[16],273 nM and 281 nM
same,TGI,[16],2670 nM and > 8210 nM
same,GI50,[17],306 nM and 319 nM
same,TGI,[17],25400 nM and > 10000 nM
same,GI50,[18],241 nM and 124 nM
same,TGI,[18],> 100000 nM
same,GI50,[19],3890 nM and > 3000 nM
same,TGI,[19],32700 nM and > 10000 nM
same,GI50,[20],256 nM and 230 nM
same,TGI,[20],> 10000 nM
same,GI50,[21],243 nM and 179 nM
same,TGI,[21],670 nM and 513 nM
same,GI50,[22],210 nM and 190 nM
same,TGI,[22],2810 nM and > 9000 nM
same,GI50,[23],351 nM and 248 nM
same,TGI,[23],17300 nM and > 2990 nM
same,GI50,[24],181 nM and 182 nM
same,GI50,[25],427 nM
same,TGI,[25],> 10000 nM
same,GI50,[26],4760 nM and > 6310 nM
same,TGI,[26],> 100000 nM
same,GI50,[27],251 nM and 168 nM
same,TGI,[27],> 100000 nM
same,GI50,[28],334 nM and 226 nM
same,TGI,[28],> 2640 nM
same,GI50,[29],244 nM and 259 nM
same,TGI,[29],> 100000 nM
same,GI50,[30],304 nM and 298 nM
same,TGI,[30],2830 nM and 2450 nM
same,GI50,[31],114 nM and 170 nM
same,TGI,[31],544 nM and 657 nM
same,GI50,[32],251 nM and 211 nM
same,TGI,[32],767 nM and > 2560 nM
same,GI50,[33],68.7 nM and 56.1 nM
same,TGI,[33],207 nM and 240 nM
same,GI50,[34],256 nM and 274 nM
same,TGI,[34],> 100000 nM
same,GI50,[35],262 nM and 215 nM
same,TGI,[35],> 63300 nM
same,GI50,[36],189 nM and 232 nM
same,TGI,[36],905 nM and 1070 nM
same,GI50,[37],470 nM and 698 nM
same,TGI,[37],> 47700 nM
same,GI50,[38],620 nM and 794 nM
same,TGI,[38],5230 nM and > 10000 nM
same,GI50,[39],193 nM and 200 nM
same,TGI,[39],27600 nM and > 10000 nM
same,GI50,[40],5600 nM and 2070 nM
same,TGI,[40],21700 nM and > 8990 nM
same,GI50,[41],166 nM and 221 nM
same,TGI,[41],523 nM and 1060 nM
same,GI50,[42],282 nM and 343 nM
same,TGI,[42],7060 nM and > 8870 nM
same,GI50,[43],223 nM and 181 nM
same,TGI,[43],3610 nM and > 2950 nM
same,GI50,[44],214 nM and 234 nM
same,TGI,[44],5340 nM and > 6430 nM
same,GI50,[45],118 nM and 243 nM
same,TGI,[45],450 nM and 768 nM
same,GI50,[46],140 nM and 166 nM
same,TGI,[46],5350 nM and > 10000 nM
same,GI50,[47],223 nM and 230 nM
same,TGI,[47],598 nM and 714 nM
same,GI50,[48],2120 nM and 2140 nM
same,TGI,[48],> 52100 nM
same,GI50,[49],45500 nM
same,TGI,[49],> 100000 nM
same,GI50,[50],185 nM and 281 nM
same,TGI,[50],2480 nM and > 3390 nM
same,GI50,[51],93.7 nM and 79.1 nM
same,TGI,[51],976 nM and 461 nM
same,GI50,[52],160 nM and 178 nM
same,TGI,[52],403 nM and 702 nM
same,GI50,[53],270 nM and 243 nM
same,TGI,[53],3790 nM and 1670 nM
same,GI50,[54],663 nM and 222 nM
same,GI50,[55],102 nM and 79.7 nM
same,TGI,[55],> 100000 nM
same,GI50,[56],441 nM and 564 nM
same,TGI,[56],2870 nM and 2610 nM
same,GI50,[57],150 nM and 124 nM
same,TGI,[57],400 nM and 324 nM
same,GI50,[58],475 nM and 569 nM
same,TGI,[58],> 100000 nM
